{"source": "patent US20250127772A1", "about": "“SPECIFIC TETRADENTATE COPPER CHELATORS FOR THE TREATMENT OF WILSON'S DISEASE” (GUANGDONG UNIVERSITY OF TECHNOLOGY, priority 2023, published 2025)", "key": {"[1]": {"test_system": "homozygous toxic-milk mouse model (TX model)", "format": "in vivo", "details": "for Cu content Brain / Cu content Feces / Cu content Kidney / Cu content Liver / Cu content Serum / Cu content Urine: mean of 6 mice ± SEM", "excerpt": "The selected drug-candidate TDMQ20 has been evaluated on the homozygous toxic-milk mouse model (TX model), a regular murine model of Wilson disease, suitable for evaluation of drug-candidates (for a review, see E. Reed et al., J. Neurochem., 146, 356-373, 2018). TX mice are bearing a naturally occurring point mutation on ATP7B resulting in a methionine changed for a valine, that causes the loss of copper transportation by this protein. C57BL/6 mice have no mutation on ATP7B and were used as control mice in the evaluation of TDMQ20. TX mice were provided by Sun Yat-Sen University (Guangzhou) and C57BL/6 mice by the Guangdong experimental animal center (Guangzhou) and all experiments were performed according to protocols approved by the Welfare Laboratory Animals Committee of the Guangdong University of Technology (approval n° GDUTXS2022083 dated on 3 Aug. 2022), in the framework of the 3 Rs principle.\n[…] TX mice (WD) and 8-week-old C57BL/6 mice (Control) were used. TX mice (as WD, TDMQ-L, TDMQ-M, TDMQ-H groups, respectively) received the drug TDMQ20 by intragastric gavage twice a day for 14 consecutive days (at 0, 12.5, 25.0, 50.0 mg/kg in NaCl 0.9%). On the same schedule, C57BL/6 mice (as control group) received NaCl 0.9%. Treatment of WD mice with DPA (200 mg/kg) was used as comparison (DPA group). Six groups of 6 mice were used.\nAt the end of the treatment period, mice (10-week old) were placed in metabolic cages for 12 h in order to collect urine and feces. At the end of this 12 h-period, mice were anesthetized using 2.5% Avertin diluted in 0.9% NaCl at a dose of […] body weight and sacrificed. Cardiac blood was collected and left at room temperature for 30 minutes before centrifugation at 4° C. at 3000 r/min for 10 minutes to obtain serum samples. During this 30-min period, liver, kidney, brain and serum were also collected. Copper concentrations in urine and feces, serum, liver, kidney and brain were determined by inductively coupled plasma mass spectrometry (ICP-MS). Data analysis was carried out using SPSS Statistics software (version 26). Data are provided as mean values±standard error of the mean (SEM). Statistical analyses were performed using one-way ANOVA for liver, feces and urine, and by non-parametric test for serum, kidney, and brain. Differences with p>0.05 were considered as no significance (ns), * p<0.05, ** p<0.01, and *** p<0.001, n=6. Graph presentations were drawn with Prism GraphPad 8.0.2."}, "[2]": {"test_system": "serum DEPs", "experiment": "Serum differentially expressed proteins (TMT LC-MS/MS) in treated TX mice", "format": "in vivo, mouse", "experimental": "In order to confirm the positive role of TDMQ20 in the treatment of TX mice, we performed proteomic experiments. Samples from three mice of each group were depicted in Table 1, The samples were treated with TMT (Tandem Mass Tag) and detected by quantitative LC-MS/MS, then the data were analyzed with ProteomeDiscoverer 2.4.1.15 (ThermoFisher Scientific). Confidence proteins were screened according to the criteria of Sequest program score greater than 0 and number of unique peptides greater than or equal to 1, and blank values were removed.\nOther differentially expressed proteins (DEPs) were screened at p<0.05 in the WD mouse group compared to the control group. […] Results are reported in Table 3 and 4 for hepatic and serum proteins, respectively."}, "[3]": {"details": "TX mice, TDMQ20-H 50 mg/kg/day gavage 14 days"}, "[4]": {"details": "TX mice, TDMQ20-L 12.5 mg/kg/day gavage 14 days"}, "[5]": {"details": "TX mice, TDMQ20-M 25 mg/kg/day gavage 14 days"}, "[6]": {"details": "serum, 25 mg/kg/day, DEP down-regulated in WD"}, "[7]": {"details": "serum, 25 mg/kg/day, DEP up-regulated in WD"}, "[8]": {"details": "serum, 50 mg/kg/day, DEP down-regulated in WD"}, "[9]": {"details": "serum, 50 mg/kg/day, DEP up-regulated in WD"}}, "note": "Where “and” joins values, the source holds several entries; their conditions need not be identical. Identical values can stand only once. Like-named read-outs stand apart in the source and are kept apart here."}
{"smiles": "CN(C)CCNCCc1ccc2c(Cl)cc(Cl)c(N)c2n1", "note": "[TDMQ20]", "values": [{"measurement": "copper content in feces versus untreated WD mice or DPA 200 mg/kg/day", "setting": "[1]; TX mice, TDMQ20 25 or 50 mg/kg/day", "value": "significantly higher"}, {"measurement": "Cu content Brain", "setting": "[1]; [3]", "value": "3.5 ± 0.1", "unit": "mg/kg"}, {"measurement": "Cu content Feces", "setting": "[1]; [3]", "value": "142 ± 10", "unit": "mg/kg"}, {"measurement": "Cu content Kidney", "setting": "[1]; [3]", "value": "11.0 ± 1.7", "unit": "mg/kg"}, {"measurement": "Cu content Liver", "setting": "[1]; [3]", "value": "200 ± 14", "unit": "mg/kg"}, {"measurement": "Cu content Serum", "setting": "[1]; [3]", "value": "3.5 ± 0.6", "unit": "mg/L"}, {"measurement": "Cu content Urine", "setting": "[1]; [3]", "value": "0.98 ± 0.05", "unit": "mg/L"}, {"measurement": "Cu content Brain", "setting": "[1]; [4]", "value": "3.2 ± 0.2", "unit": "mg/kg"}, {"measurement": "Cu content Feces", "setting": "[1]; [4]", "value": "88 ± 3", "unit": "mg/kg"}, {"measurement": "Cu content Kidney", "setting": "[1]; [4]", "value": "5.5 ± 0.3", "unit": "mg/kg"}, {"measurement": "Cu content Liver", "setting": "[1]; [4]", "value": "290 ± 4", "unit": "mg/kg"}, {"measurement": "Cu content Serum", "setting": "[1]; [4]", "value": "0.63 ± 0.04", "unit": "mg/L"}, {"measurement": "Cu content Urine", "setting": "[1]; [4]", "value": "0.76 ± 0.13", "unit": "mg/L"}, {"measurement": "Cu content Brain", "setting": "[1]; [5]", "value": "3.3 ± 0.2", "unit": "mg/kg"}, {"measurement": "Cu content Feces", "setting": "[1]; [5]", "value": "129 ± 4", "unit": "mg/kg"}, {"measurement": "Cu content Kidney", "setting": "[1]; [5]", "value": "5.0 ± 0.4", "unit": "mg/kg"}, {"measurement": "Cu content Liver", "setting": "[1]; [5]", "value": "256 mg/kg and 256 ± 8 mg/kg"}, {"measurement": "Cu content Serum", "setting": "[1]; [5]", "value": "0.83 ± 0.12", "unit": "mg/L"}, {"measurement": "Cu content Urine", "setting": "[1]; [5]", "value": "0.67 ± 0.10", "unit": "mg/L"}, {"measurement": "copper concentration in urine, concentration ratio TDMQ20-H/WD", "setting": "[1]; TX mice, TDMQ20 at 50 mg/kg, factor versus WD mice, 50 mg/kg", "value": "1.8 and 1.75"}, {"measurement": "concentration of copper in kidney, factor versus WD mice", "setting": "[1]; TX mice, TDMQ20 at 50 mg/kg, ratio TDMQ20-H/WD", "value": 1.64}, {"measurement": "copper concentration in the brain versus WD mice", "setting": "[1]; mouse, in vivo", "value": "no increase of copper concentration"}, {"measurement": "serum DEPs TDMQ20-H/control ratio", "setting": "[2]; TDMQ20 50 mg/kg", "value": "~1"}, {"measurement": "serum DEPs after treatment", "setting": "[2]; TDMQ20 at 25 or 50 mg/kg", "value": "reversed to normal values"}, {"measurement": "TDMQ20-M/ctrl fold change: Alpha-aminoadipic semialdehyde synthase, mitochondrial (Aass)", "setting": "[2]; [6]", "value": 0.97}, {"measurement": "TDMQ20-M/ctrl fold change: Cystatin-C (Cst3)", "setting": "[2]; [6]", "value": 0.88}, {"measurement": "TDMQ20-M/ctrl fold change: Elongation factor 1-delta (Eef1d)", "setting": "[2]; [6]", "value": 0.85}, {"measurement": "TDMQ20-M/ctrl fold change: GrpE protein homolog 1, mitochondrial (Grpel1)", "setting": "[2]; [6]", "value": 0.95}, {"measurement": "TDMQ20-M/ctrl fold change: Transgelin-2 (Tagln2)", "setting": "[2]; [6]", "value": 0.87}, {"measurement": "TDMQ20-M/ctrl fold change: Ig heavy chain V region 1-72 (Ighv1-72)", "setting": "[2]; [7]", "value": 1.08}, {"measurement": "TDMQ20-M/ctrl fold change: Regucalcin (Rgn)", "setting": "[2]; [7]", "value": 1.06}, {"measurement": "TDMQ20-M/ctrl fold change: Ribonuclease 4 (Rnase4)", "setting": "[2]; [7]", "value": 1.10}, {"measurement": "TDMQ20-M/ctrl fold change: Triokinase/FMN cyclase (Tkfc)", "setting": "[2]; [7]", "value": 1.07}, {"measurement": "TDMQ20-M/ctrl fold change: Tropomyosin alpha-3 chain (Tpm3)", "setting": "[2]; [7]", "value": 1.11}, {"measurement": "TDMQ20-H/ctrl fold change: Alpha-aminoadipic semialdehyde synthase, mitochondrial (Aass)", "setting": "[2]; [8]", "value": 0.93}, {"measurement": "TDMQ20-H/ctrl fold change: Cystatin-C (Cst3)", "setting": "[2]; [8]", "value": 0.92}, {"measurement": "TDMQ20-H/ctrl fold change: Elongation factor 1-delta (Eef1d)", "setting": "[2]; [8]", "value": 0.88}, {"measurement": "TDMQ20-H/ctrl fold change: GrpE protein homolog 1, mitochondrial (Grpel1)", "setting": "[2]; [8]", "value": 1.04}, {"measurement": "TDMQ20-H/ctrl fold change: Transgelin-2 (Tagln2)", "setting": "[2]; [8]", "value": 0.91}, {"measurement": "TDMQ20-H/ctrl fold change: Ig heavy chain V region 1-72 (Ighv1-72)", "setting": "[2]; [9]", "value": 1.15}, {"measurement": "TDMQ20-H/ctrl fold change: Regucalcin (Rgn)", "setting": "[2]; [9]", "value": 0.88}, {"measurement": "TDMQ20-H/ctrl fold change: Ribonuclease 4 (Rnase4)", "setting": "[2]; [9]", "value": 1.03}, {"measurement": "TDMQ20-H/ctrl fold change: Triokinase/FMN cyclase (Tkfc)", "setting": "[2]; [9]", "value": 0.95}, {"measurement": "TDMQ20-H/ctrl fold change: Tropomyosin alpha-3 chain (Tpm3)", "setting": "[2]; [9]", "value": 0.95}]}
